Drawing on PubChem BioAssay (NCI), this text covers TGI and GI50 for 14 molecules.

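Where inhibition never reached the appropriate level, the endpoint shown equals the highest concentration tested. Otherwise, values were interpolated linearly from a five-concentration, 48-hour dose response in 96-well plates. Abbreviation: GI50, concentration required for 50% inhibition of growth. TGI denotes the concentration required for complete inhibition of growth.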 Where only a bound is given, the exact number is not on record here.

Some test systems named below: HT29 colon; UACC-62 melanoma; UACC-257 melanoma; DMS 273 small cell lung; SK-MEL-2 melanoma; SF-539 CNS; MOLT-4 leukemia; HCC-2998 colon; OVCAR-3 ovarian; SNB-75 CNS; DMS 114 small cell lung; M14 melanoma; MDA-N; DU-145 prostate.
Holding throughout (assay): NCI tumour cell line growth inhibition, 48 h

Regarding `CC(C)[C@](O)(C(=O)OCC1CC[N+]2([O-])CC[C@@H](O)C12)[C@H](C)O` (stereo partly drawn), the TGI in the assay on HT29 colon is above 375 µM; in the assay with UACC-62 melanoma, above 375 µM; with UACC-257 melanoma, above 375 µM; with DMS 273 small cell lung it was above 375 µM; in the assay with SK-MEL-2 melanoma, above 317 µM; in the assay on SF-539 CNS, above 375 µM. Besides, the TGI was above 375 µM in the assay with MOLT-4 leukemia; above 375 µM in the assay with HCC-2998 colon; above 375 µM with OVCAR-3 ovarian; above 161 µM in the assay on SNB-75 CNS; above 375 µM in the assay with DMS 114 small cell lung.
In the case of `Cc1ccc(S(=O)(=O)OC2C(C3COC(C)(C)O3)OC3OC(C)(C)OC32)cc1` (stereo not drawn), the TGI with HT29 colon, in the assay on UACC-62 melanoma, with UACC-257 melanoma, in the assay on SK-MEL-2 melanoma, in the assay with M14 melanoma and with MOLT-4 leukemia was above 100 µM each time. In addition, the TGI in the assay on HCC-2998 colon, in the assay on OVCAR-3 ovarian, with MDA-N, in the assay with SNB-75 CNS and in the assay on DU-145 prostate was above 100 µM in each case.
Regarding `Cc1ccc(-c2csc(=Nc3c(C)n(C)n(-c4ccccc4)c3=O)n2CCO)cc1`, the TGI in the assay on UACC-62 melanoma, in the assay with UACC-257 melanoma, with SK-MEL-2 melanoma, with SF-539 CNS, with M14 melanoma and in the assay with MOLT-4 leukemia was above 100 µM in each case. In addition, the TGI in the assay with HCC-2998 colon, in the assay on OVCAR-3 ovarian, in the assay on MDA-N and in the assay on SNB-75 CNS was above 100 µM each time.
For `CCCCN1C(=O)NC(Cc2ccccc2)C1=O` (stereo not drawn), the TGI in the assay with HT29 colon, in the assay with UACC-257 melanoma, with DMS 273 small cell lung, with SK-MEL-2 melanoma, in the assay on SF-539 CNS and in the assay with M14 melanoma was above 100 µM in each case. In addition, the TGI in the assay with HCC-2998 colon, with SNB-75 CNS and with DMS 114 small cell lung was above 100 µM throughout.
On to `O=[n+]1c2ccccc2n([O-])c2cc(Br)ccc21`, for which the TGI with HT29 colon was 39.1 µM; in the assay on UACC-62 melanoma, 55.6 µM; with UACC-257 melanoma it was 34.9 µM; in the assay on SK-MEL-2 melanoma, 56.8 µM; in the assay with SF-539 CNS, 37.5 µM; in the assay with M14 melanoma, above 100 µM. Besides, the TGI in the assay with MOLT-4 leukemia is 2.19 µM; in the assay with HCC-2998 colon, 39.9 µM; with OVCAR-3 ovarian, 9.04 µM; with SNB-75 CNS it was 77.7 µM; with DU-145 prostate, 98.9 µM.
`CC#C[I+]c1ccccc1`: the TGI was 34.5 µM in the assay with HT29 colon; 57.6 µM in the assay with UACC-62 melanoma; 51.7 µM with UACC-257 melanoma; 27.8 µM with DMS 273 small cell lung; above 100 µM with SK-MEL-2 melanoma; 35.1 µM in the assay on SF-539 CNS. Also, the TGI in the assay on M14 melanoma was 37.1 µM; in the assay on MOLT-4 leukemia, 42.2 µM; with HCC-2998 colon it was 56.6 µM; in the assay with OVCAR-3 ovarian, 33.9 µM; in the assay on SNB-75 CNS, above 100 µM; with DMS 114 small cell lung it was 26.3 µM.
As to `COc1ccc(N2C(=O)C3c4[nH]c5cccc(C)c5c4C4CCC(C(C)(C)C)CC4C3C2=O)cc1` (stereo not drawn), the TGI in the assay with HT29 colon, in the assay with UACC-62 melanoma, with SK-MEL-2 melanoma, in the assay with SF-539 CNS, in the assay with M14 melanoma and with MOLT-4 leukemia was above 10 µM throughout. Also, the TGI in the assay with HCC-2998 colon, with OVCAR-3 ovarian, with MDA-N, in the assay with SNB-75 CNS and with DU-145 prostate was above 10 µM each time.
For the molecule `COc1cc2c3c(n(CCCNCCCNCCCn4c5c(c6ccccc6c4=O)C(=O)c4ccccc4-5)c(=O)c2cc1OC)-c1cc2c(cc1C3=O)OCO2`, the GI50 in the assay on SK-MEL-2 melanoma was 0.64 µM; in the assay on SF-539 CNS it was below 0.01 µM; in the assay on M14 melanoma, 0.987 µM; in the assay with MOLT-4 leukemia it was below 0.01 µM; with DU-145 prostate, below 0.01 µM. Also, the TGI in the assay on SK-MEL-2 melanoma is 3.1 µM; in the assay on M14 melanoma it was 2.15 µM; in the assay on MOLT-4 leukemia, above 100 µM; with DU-145 prostate it was 0.213 µM.
As for `CC(=O)Oc1ccccc1C(=O)O`, the TGI in the assay with HT29 colon, with UACC-62 melanoma, in the assay with UACC-257 melanoma, in the assay with SK-MEL-2 melanoma, in the assay on SF-539 CNS and in the assay on M14 melanoma was above 100 µM each time. Also, the TGI with MOLT-4 leukemia, in the assay with OVCAR-3 ovarian, with MDA-N, with SNB-75 CNS and with DU-145 prostate was above 100 µM in each case.
Regarding `Clc1c(Cl)c2c(Cl)c(Cl)c1C[P+](c1ccccc1)(c1ccccc1)CC[P+](c1ccccc1)(c1ccccc1)Cc1c(Cl)c(Cl)c(c(Cl)c1Cl)C[P+](c1ccccc1)(c1ccccc1)CC[P+](c1ccccc1)(c1ccccc1)C2`, the TGI in the assay on HT29 colon amounted to 10.3 µM; in the assay on UACC-257 melanoma it was 6.38 µM; in the assay with DMS 273 small cell lung, 6.59 µM; with SK-MEL-2 melanoma, 6.09 µM; in the assay with SF-539 CNS, 16.2 µM; in the assay with M14 melanoma it was 16.2 µM. The TGI worked out at 10.5 µM in the assay with MOLT-4 leukemia; 14.5 µM in the assay with HCC-2998 colon; 8.97 µM in the assay with OVCAR-3 ovarian; 14.2 µM with SNB-75 CNS; 3.7 µM with DMS 114 small cell lung.
For `Cn1c(-c2ccc(/C=N\N3CCN(/N=C/c4ccc(-c5c[n+]6ccsc6n5C)cc4)CC3)cc2)c[n+]2ccsc12`, the TGI was above 100 µM with HT29 colon; 95.7 µM in the assay with UACC-62 melanoma; 67.9 µM in the assay on UACC-257 melanoma; above 100 µM in the assay with SK-MEL-2 melanoma; above 100 µM with SF-539 CNS; above 100 µM with M14 melanoma. Moreover, the TGI was above 100 µM in the assay on MOLT-4 leukemia; above 100 µM in the assay with OVCAR-3 ovarian; above 100 µM in the assay on MDA-N; 93.1 µM in the assay on SNB-75 CNS; above 100 µM with DU-145 prostate.
As for `CCCCCCCCCCCCCCCCOCC(COP(=O)([O-])OCC[N+](C)(C)C)OCCCCCCCCCCCCCCCC` (stereo not drawn), the TGI in the assay on HT29 colon, with UACC-62 melanoma, in the assay on UACC-257 melanoma, in the assay on DMS 273 small cell lung, with SK-MEL-2 melanoma and in the assay on SF-539 CNS was above 100 µM throughout. For the same molecule, the TGI with MOLT-4 leukemia, in the assay on HCC-2998 colon, in the assay with OVCAR-3 ovarian, with SNB-75 CNS and in the assay on DMS 114 small cell lung was above 100 µM throughout.
For the molecule `CCO[C@]12C[C@H](OC)[C@@]3(O)CC(C1[C@H]3O)C13C4C2[C@H](OC)C1[C@](COC)(CN4CC)[C@H](O)C[C@@H]3OC` (stereo partly drawn), the TGI in the assay on HT29 colon, in the assay on UACC-62 melanoma, with UACC-257 melanoma, in the assay with DMS 273 small cell lung, in the assay on SF-539 CNS and with M14 melanoma was above 100 µM in each case. Further, the TGI in the assay on MOLT-4 leukemia, with HCC-2998 colon and with DMS 114 small cell lung was above 100 µM throughout.
For `OCCN(CCO)c1ccc2c(c1)Cc1ccccc1-2`, the TGI was 37.8 µM in the assay on HT29 colon; above 100 µM in the assay with UACC-62 melanoma; 96.7 µM with UACC-257 melanoma; 63.2 µM in the assay on SK-MEL-2 melanoma; above 100 µM in the assay with SF-539 CNS; above 100 µM with M14 melanoma. Moreover, the TGI in the assay with MOLT-4 leukemia was above 100 µM; with HCC-2998 colon, above 100 µM; with OVCAR-3 ovarian it was 45.9 µM; in the assay with MDA-N, above 100 µM; with DU-145 prostate, above 100 µM.
